Test results from patent publication US9789115B2 (priority 2010, dated 2017).

Columns and labels:
[1] = system: operated rats (plantar incision); details: rat, in vivo
[2] = system: opioid-treated operated rats; experiment: Experimental protocol 2: OIH precipitated by naloxone, withdrawal responses with von Frey filaments; format: in vivo, rat; details: for naloxone-precipitated hyperalgesia: naloxone on day 21
sigma 2 (σ-2) site = sigma 2 (σ-2) site (Homo sapiens, UniProt Q5BJF2); details: cited from earlier work
sigma 2 (σ-2) site, sequence (Q5BJF2 whole entry): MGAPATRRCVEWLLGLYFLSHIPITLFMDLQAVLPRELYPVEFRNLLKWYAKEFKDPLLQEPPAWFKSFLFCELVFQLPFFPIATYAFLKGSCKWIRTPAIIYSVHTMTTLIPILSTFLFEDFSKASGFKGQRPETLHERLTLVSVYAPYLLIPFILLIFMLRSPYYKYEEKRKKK

naïve rats = details: rat, in vivo

Compound: CN1CC[C@]23c4c5ccc(O)c4O[C@H]2[C@@H](O)C=C[C@H]3[C@H]1C5 [morphine]
- analgesic effect of the opioid ([1]; ip): analgesic effect

Compound: Cc1cc(OCCN2CCOCC2)nn1-c1ccc2ccccc2c1 [compound n° 63, 4-{2-[5-Methyl-1-(naphthalen-2-yl)-1H-pyrazol-3-yloxy]ethyl}morpholine]
- allodynia secondary to surgery and OIH when Morphine was used [1]: inhibits allodynia secondary to surgery and OIH
- decrease of the mechanical sensitization threshold induced by the surgery [1]: inhibit dose-dependently
- development of OIH [1]: inhibits dose-dependently
- enhancement of allodynia induced by perioperative morphine [1]: strongly reduced
- naloxone-precipitated hyperalgesia ([2]; 80 mg/kg co-administered with last dose of opioid): unable to precipitate hyperalgesia
- naloxone-precipitated hyperalgesia ([2]; 20 and 40 mg/kg co-administered with last dose of opioid): attenuation

Compound: SKF 10047
- affinity for the sigma 2 site (sigma 2 (σ-2) site): micromolar affinity

Compound: C=CCN1CC[C@]23c4c5ccc(O)c4O[C@H]2C(=O)CC[C@@]3(O)[C@H]1C5 [naloxone]
- nociceptive threshold after naloxone injection ([2]; naloxone 2 mg/kg on day 21 in opioid-treated rats): significant decrease in the nociceptive threshold below the basal value
- nociceptive threshold after naloxone injection ([2]; naloxone 2 mg/kg on day 21 in vehicle saline-treated rats): no significant effect

Compound: CN1CCN(CCc2ccc(Cl)c(Cl)c2)CC1 [BD-1063]
- enhancement of allodynia induced by morphine administration (naïve rats): reduces the enhancement of allodynia
- morphine-induced hyperalgesia (naïve rats): inhibited
